The target of assay [1] is T1, delta-5-desaturase (Homo sapiens, UniProt O60427).
T1 construct: endogenous in cells; host or cells: HepG2
Description: Delta-5-desaturase inhibitory activity using HepG2 cell. The format is cell-based. Particulars: test compound 1 μM.

Assay [2] deals with T2, delta-5-desaturase (Mus musculus, UniProt Q920L1).
T2 construct: the mice were anesthetized, and the liver was isolated; tissue CLEA Japan, Inc; host or cells: liver of C57BL/6J mice (in vivo dosing)
T2 sequence (Q920L1 1-447): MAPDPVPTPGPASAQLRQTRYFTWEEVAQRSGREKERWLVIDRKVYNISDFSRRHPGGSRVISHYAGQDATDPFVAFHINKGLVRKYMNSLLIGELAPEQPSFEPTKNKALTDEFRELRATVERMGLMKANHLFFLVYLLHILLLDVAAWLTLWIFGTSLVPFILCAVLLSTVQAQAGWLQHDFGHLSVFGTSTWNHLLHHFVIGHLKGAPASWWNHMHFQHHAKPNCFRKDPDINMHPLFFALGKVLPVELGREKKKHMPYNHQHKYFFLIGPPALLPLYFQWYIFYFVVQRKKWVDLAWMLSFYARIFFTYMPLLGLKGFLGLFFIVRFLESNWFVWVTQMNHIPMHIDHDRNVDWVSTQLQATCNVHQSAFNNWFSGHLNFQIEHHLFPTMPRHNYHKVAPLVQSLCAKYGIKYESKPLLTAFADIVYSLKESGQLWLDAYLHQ
Description: Delta-5-desaturase inhibitory action in vivo (liver AA/DGLA ratio in mice). Particulars: 3 mg/kg by gavage for 4 days; male C57BL/6J mice; liver phospholipid fraction; solvent administration group as 100%. Here is the method:
Delta-5-Desaturase Inhibitory Action In Vivo
The delta-5-desaturase inhibitory action of the test compound in vivo was evaluated by the following method. A suspension of a test compound (3 mg/kg) in 0.5% methylcellulose was administered by gavage every morning at 10 mL/kg for 4 days to 7- to 9-week-old male normal mice (C57BL/6J, CLEA Japan, Inc.) acclimated with a normal chow feed (CE-2, CLEA Japan, Inc.) in individual cages. In the next morning of the final administration, the mice were anesthetized, and the liver was isolated. Total lipid was extracted from about 40 mg of a liver sample with hexane-propanol solution, and a phospholipid fraction was extracted using a solid phase extraction column (Sep-Pak Vac NH2, Waters) and labeled with an esterified long-chain and short-chain fatty acid labeling reagent (YMC). The arachidonic acid and dihomo-γ-linolenic acid contents of the sample after labeling were measured by high performance liquid chromatography (Agilent 1200, Agilent Technologies). The arachidonic acid (AA) content was divided by the content of dihomo-γ-linolenic acid (DGLA) to obtain an AA/DGLA ratio. The decrease rate of the test compound administration group was calculated based on the AA/DGLA ratio of the solvent administration group as 100%, which was used as an index of the liver delta-5-desaturase inhibitory action in vivo.

The target of assay [3] is T3, delta-5-desaturase (Rattus norvegicus, UniProt Q920R3).
T3 construct: a rat liver microsome fraction (10 μl) diluted to 3 mg/ml with a microsome buffer; from tissue; host or cells: rat liver microsome fraction
T3 sequence (Q920R3 whole entry): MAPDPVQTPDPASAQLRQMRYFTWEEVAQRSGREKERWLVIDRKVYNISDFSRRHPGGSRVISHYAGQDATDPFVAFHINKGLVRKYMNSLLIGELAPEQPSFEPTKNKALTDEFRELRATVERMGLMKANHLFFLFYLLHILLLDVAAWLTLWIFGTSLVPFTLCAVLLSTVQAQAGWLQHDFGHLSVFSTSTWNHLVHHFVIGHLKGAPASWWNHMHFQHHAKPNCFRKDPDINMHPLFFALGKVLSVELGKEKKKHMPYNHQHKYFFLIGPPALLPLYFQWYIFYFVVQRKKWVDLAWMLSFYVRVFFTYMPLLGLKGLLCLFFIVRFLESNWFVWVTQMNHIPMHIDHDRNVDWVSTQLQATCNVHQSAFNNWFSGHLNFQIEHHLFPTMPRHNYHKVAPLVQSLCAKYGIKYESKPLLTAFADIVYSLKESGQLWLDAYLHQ
Description: Inhibitory activity on binding of [3H]-labelled Reference Example 1 ligand to delta-5-desaturase (rat liver microsome fraction). Particulars: test compound 10 μM, 3 nM tritiated ligand of Reference Example 1, read-out: Binding inhibitory activity against compound bind to delta-5-desaturase Binding inhibition rate (%) at 10 μM.

Assay [4] deals with T3, delta-5-desaturase. Description: Delta-5-desaturase inhibitory activity using rat liver microsome. Format: biochemical. The conditions noted are these: test compound 10 μM.

T1 sequence (O60427 whole entry): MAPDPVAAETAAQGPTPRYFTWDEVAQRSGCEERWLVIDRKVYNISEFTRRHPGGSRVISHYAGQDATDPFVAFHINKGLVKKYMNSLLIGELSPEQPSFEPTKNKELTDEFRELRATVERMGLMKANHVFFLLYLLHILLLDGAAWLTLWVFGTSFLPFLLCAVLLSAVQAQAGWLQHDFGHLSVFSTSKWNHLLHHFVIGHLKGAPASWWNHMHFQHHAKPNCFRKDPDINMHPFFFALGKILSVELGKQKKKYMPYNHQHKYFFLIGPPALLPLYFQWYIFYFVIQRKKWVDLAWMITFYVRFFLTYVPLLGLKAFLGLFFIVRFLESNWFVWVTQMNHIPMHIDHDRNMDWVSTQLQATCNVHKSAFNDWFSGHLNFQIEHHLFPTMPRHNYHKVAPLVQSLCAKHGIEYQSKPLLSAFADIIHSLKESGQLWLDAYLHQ

With `O=c1ccc2c(=O)n(-c3ccc(OCC(F)(F)F)cc3)c(OCC(F)F)nc2[nH]1` [Example 16, 2-(2,2-difluoroethoxy)-3-[4-(2,2,2-trifluoroethoxy)phenyl]pyrido[2,3-d]pyrimidine-4,7(3H,8H)-dione], the inhibition at 1 µM against delta-5-desaturase [1] stood at 102%. For the same molecule, the “lowering rate (%) of arachidonic acid/dihomo-γ-linolenic acid ratio” value at delta-5-desaturase [2] was determined as 69%. Also, the results for the inhibition at 10 µM on delta-5-desaturase [3] and against delta-5-desaturase [4] were 96% and 101%, respectively.

With `O=C1CCc2c(nc(OCC(F)(F)F)n(-c3ccc(OCC(F)(F)F)cc3)c2=O)N1` [Example 22, 2-(2,2,2-trifluoroethoxy)-3-[4-(2,2,2-trifluoroethoxy)phenyl]-5,6-dihydropyrido[2,3-d]pyrimidine-4,7(3H,8H)-dione], the inhibition at 1 µM at delta-5-desaturase [1] stood at 101%. In addition, on delta-5-desaturase [2], the “lowering rate (%) of arachidonic acid/dihomo-γ-linolenic acid ratio” value is on record as 68%. Also, the inhibition at 10 µM at delta-5-desaturase [3] came out at 92%; against delta-5-desaturase [4], 100%.

On to `CCOc1nc2c(c(=O)n1-c1ccc(OCC(F)(F)F)cc1)CCC(=O)N2` [Example 23, 2-ethoxy-3-[4-(2,2,2-trifluoroethoxy)phenyl]-5,6-dihydropyrido[2,3-d]pyrimidine-4,7(3H,8H)-dione], for which the inhibition at 1 µM on delta-5-desaturase [1] was 93%. For the same molecule, the “lowering rate (%) of arachidonic acid/dihomo-γ-linolenic acid ratio” value on delta-5-desaturase [2] is listed as 67%. The inhibition at 10 µM on delta-5-desaturase [3] is 91%; at delta-5-desaturase [4] it was 96%.

The record behind these values is patent US9023858B2, “Substituted pyrido[2,3-d]pyrimidines as delta-5-desaturase inhibitors” (Takeda Pharmaceutical Company Limited, priority 2010, dated 2015).
